Test results as given in US20110034420A1, “NOVEL CRYSTALLINE FORM B OF (2R)-(3-AMINO-2-FLUOROPROPYL)PHOSPHINIC ACID” (priority 2008, published 2011).

Assay: isoelectric point of the zwitterion
Type: physicochemical
Conditions: pH at which it may be crystallised
From the text: (2R)-(3-amino-2-fluoropropyl)phosphinic acid is a zwitterion, that may be crystallised at the isoelectric point, in this case approximately at a pH of 5.3.

SMILES: NC[C@@H](F)C[PH](=O)O [(2R)-(3-amino-2-fluoropropyl)phosphinic acid]
- isoelectric point (pH): ~5.3 pH
